Data as given in PMC5508519 (Bioorganic & medicinal chemistry letters, 2017).

Assays:
[1] = predicted hepatic clearance from human microsomal CLint; type: in vitro ADME; conditions: based on CLint data from microsomes
hM4 = target: T1, hM4 (Homo sapiens, UniProt P08173); test: calcium mobilization assay, hM4 CHO cells co-transfected with Gqi5, ACh EC80; type: cell-based; conditions: SAR text on Table 2
T1 sequence (P08173 1-479): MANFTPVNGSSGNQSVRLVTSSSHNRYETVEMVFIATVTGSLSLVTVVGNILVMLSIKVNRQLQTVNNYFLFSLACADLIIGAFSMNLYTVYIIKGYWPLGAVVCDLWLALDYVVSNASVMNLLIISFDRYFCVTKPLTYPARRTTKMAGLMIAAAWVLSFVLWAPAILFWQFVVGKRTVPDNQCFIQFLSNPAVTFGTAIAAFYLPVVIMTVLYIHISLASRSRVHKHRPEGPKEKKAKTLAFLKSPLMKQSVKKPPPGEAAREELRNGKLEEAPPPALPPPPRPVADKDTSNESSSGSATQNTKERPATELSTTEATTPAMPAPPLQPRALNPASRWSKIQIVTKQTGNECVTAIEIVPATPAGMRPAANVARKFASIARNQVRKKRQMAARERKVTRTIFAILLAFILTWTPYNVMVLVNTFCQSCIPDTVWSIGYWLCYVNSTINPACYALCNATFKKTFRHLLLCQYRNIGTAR

M1 = target: T2, M1 (Homo sapiens, UniProt P11229); test: calcium mobilization assay, hM1 CHO cells, approximate EC80 of ACh; type: cell-based; conditions: n = 1
T2 sequence (P11229 1-460): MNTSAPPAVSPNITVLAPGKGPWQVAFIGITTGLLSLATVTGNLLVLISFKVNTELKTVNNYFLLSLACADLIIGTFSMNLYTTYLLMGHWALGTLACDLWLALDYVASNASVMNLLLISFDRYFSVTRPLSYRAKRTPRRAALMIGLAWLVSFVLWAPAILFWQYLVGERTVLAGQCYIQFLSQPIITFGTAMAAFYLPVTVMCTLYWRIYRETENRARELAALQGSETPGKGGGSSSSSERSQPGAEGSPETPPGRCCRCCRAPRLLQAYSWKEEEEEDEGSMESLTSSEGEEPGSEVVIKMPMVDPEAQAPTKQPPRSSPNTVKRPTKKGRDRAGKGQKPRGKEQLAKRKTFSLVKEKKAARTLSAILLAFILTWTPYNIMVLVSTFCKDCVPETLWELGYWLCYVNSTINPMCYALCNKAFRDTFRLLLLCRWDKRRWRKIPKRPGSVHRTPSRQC

M5 = target: T3, M5 (Homo sapiens, UniProt P08912); test: calcium mobilization assay, hM5 CHO cells, approximate EC80 of ACh; type: cell-based; conditions: n = 1
T3 sequence (P08912 1-532): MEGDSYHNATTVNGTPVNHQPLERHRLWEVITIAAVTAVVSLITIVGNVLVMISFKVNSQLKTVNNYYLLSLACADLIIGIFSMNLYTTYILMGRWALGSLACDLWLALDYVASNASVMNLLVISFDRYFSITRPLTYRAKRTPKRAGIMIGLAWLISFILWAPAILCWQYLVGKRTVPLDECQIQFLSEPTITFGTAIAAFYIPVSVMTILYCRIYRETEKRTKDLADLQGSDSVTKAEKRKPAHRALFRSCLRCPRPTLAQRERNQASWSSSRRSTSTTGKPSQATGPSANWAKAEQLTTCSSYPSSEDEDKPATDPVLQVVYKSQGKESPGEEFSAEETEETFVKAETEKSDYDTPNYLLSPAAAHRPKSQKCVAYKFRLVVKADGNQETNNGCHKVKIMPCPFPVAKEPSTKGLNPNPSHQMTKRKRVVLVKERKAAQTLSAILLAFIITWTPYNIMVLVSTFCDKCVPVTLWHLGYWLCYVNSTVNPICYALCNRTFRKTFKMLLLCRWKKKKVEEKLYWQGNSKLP

Compound	predicted hepatic clearance CLhep (rat) [mL/min/kg]	predicted hepatic clearance CLhep (human) [1] [mL/min/kg]	M4 inhibitory activity (in words) (hM4)	other results
CCc1ccc(Oc2cc(N3CCC(C(=O)N4CCc5ccccc5C4)CC3)ncn2)cc1 [Compound 5]	68.6	20.3	–	–
COc1ccc2c(c1)CCN(C(=O)C1CCN(c3cc(Oc4ccc(F)cc4F)ncn3)CC1)C2 [Compound 17b]	–	–	retained M4 inhibitory activity	–

Now from value to compound, other results behind:

predicted hepatic clearance CLhep (rat) [mL/min/kg]	predicted hepatic clearance CLhep (human) [1] [mL/min/kg]	M4 inhibitory activity (in words) (hM4)	Compound	other results
–	–	retained M4 inhibitory activity	O=C(C1CCN(c2cc(Oc3ccc(F)cc3F)ncn2)CC1)N1CCC2CCCCC2C1 (stereo not shown) [Compound 17d]	–
–	–	retained M4 inhibitory activity	COc1ccc2c(c1)CN(C(=O)C1CCN(c3cc(Oc4ccc(F)cc4F)ncn3)CC1)CC2 [Compound 17c]	–
36.5	5.56	–	O=C(C1CCN(c2cc(Oc3ccc(F)cc3F)ncn2)CC1)N1Cc2ccccc2C1 [Compound 17e, (1-(6-(2,4-difluorophenoxy)pyrimidin-4-yl)piperidin-4-yl)(isoindolin-2-yl)methanone]	M1 % ACh Min (M1): 18.2 % ACh Min; predicted CLhep with inclusion of binding terms in the well-stirred model (rat): 5.93 mL/min/kg; M5 % ACh Min (M5): 42.6 % ACh Min
